From the METLIN SMRT retention time set (Domingo-Almenara et al. 2019)
Values belong to the compound of their own block, whether it stands above or below them.

Experiment: gradient 5% acetonitrile 3 min, to 50% in 2 min, to 85% in 15 min, held 3 min, 100 µL/min
Conditions: column: Zorbax Extend-C18 2.1 x 50 mm; eluents: water / acetonitrile, 0.1% formic acid
How it was run: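 Retention times come from adduct peaks that were picked computationally and then checked by hand. The standards, pure and pooled in mixtures of ~100 molecules, were run on a Zorbax Extend-C18 column (2.1 × 50 mm, 1.8 μm) at 100 μL/min with water and acetonitrile, each with 0.1% formic acid. Detection was by quadrupole time-of-flight mass spectrometry in positive and negative ionization mode, with a dead volume of 40 μL and a dwell volume of 900 μL.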

RP-LC retention time: 820 s
SMILES: CCc1nc2cc(N3CCC(C(=O)NCc4ccccc4)CC3)cnc2nc1CC

RP-LC retention time: 818 s
SMILES: CC(C)n1c(N2CCN(C(=O)Cc3ccc(F)cc3)CC2)cc(=O)n(C(C)C)c1=O

RP-LC retention time: 706 s
SMILES: CCOc1cc(=O)n2c(c1C(=O)Nc1ccc(OC)cc1OC)CCCC2

RP-LC retention time: 726 s
SMILES: CC(C)n1nnc2cc(C(=O)N(C)CC(=O)Nc3ccc(F)cc3)ccc21

RP-LC retention time: 650 s
SMILES: CC(=O)c1cccc(NC(=O)Cn2c(-c3cnccn3)nc(C)c(C)c2=O)c1

RP-LC retention time: 849 s
SMILES: Cc1cc(Cl)ccc1OCC(=O)N(Cc1ccc(N(C)C)cc1)C1CCS(=O)(=O)C1 (configuration not stated)

RP-LC retention time: 1010 s
SMILES: CC(C)n1c(=O)sc2cc(S(=O)(=O)N3CCC(C(=O)Nc4cccc(F)c4)CC3)ccc21

RP-LC retention time: 848 s
SMILES: CCCN1C(=O)c2c(C(=O)NCc3ccc(C)cc3)ncn2CC1(C)C(=O)NC1CCCC1 (configuration not stated)

RP-LC retention time: 781 s
SMILES: CC1CS(=O)(=O)N(c2cccc(C(=O)N3CCCc4ccccc43)c2)C1=O (configuration not stated)

RP-LC retention time: 889 s
SMILES: Cc1cc(C(=O)N2CCCC2c2ccccc2Cl)on1 (configuration not stated)

RP-LC retention time: 1060 s
SMILES: Cc1cc(C)c2c(-n3cccc3)nn(Cc3ccc(C(=O)NCc4ccco4)cc3)c2n1

RP-LC retention time: 780 s
SMILES: CCOc1ccc(CC(=O)N2CCC3(CC2)N=C(c2ccccc2)NO3)cc1

Second part, the compound before the results:

SMILES: CSc1ccc(NC(=O)N2C[C@@H]3C[C@H]2C[C@@H]3NS(=O)(=O)c2ccccc2)cc1
RP-LC retention time: 856 s

SMILES: CCCS(=O)(=O)c1nc2ccc(NS(=O)(=O)c3cc(F)ccc3F)cc2s1
RP-LC retention time: 918 s

SMILES: c1ccc(-c2nc(CSc3cc(N4CCOCC4)ncn3)cs2)cc1
RP-LC retention time: 817 s

SMILES: O=C(c1ccc(Br)o1)N1CCN=C1N1CCN(c2ccccc2F)CC1
RP-LC retention time: 695 s

SMILES: CC(COc1ccccc1Cc1ccccc1)N1CCCCC1 (configuration not stated)
RP-LC retention time: 852 s

SMILES: COc1ccc(-c2nc(-c3nnn(-c4ccc(F)cc4)c3C)no2)cc1OC
RP-LC retention time: 917 s

SMILES: CCCN(C(=O)c1ccco1)c1nc(-c2ccccc2)cs1
RP-LC retention time: 1250 s

SMILES: O=C(CN1C(=O)C2CCCCN2c2ccc(S(=O)(=O)N3CCCC3)cc21)NC1CCCCCC1 (configuration not stated)
RP-LC retention time: 1000 s

SMILES: CCOC(=O)C1CCN(c2cc3c(cc2NC(=O)NC2CCCC2)n(C)c(=O)n3C)CC1
RP-LC retention time: 777 s

SMILES: CCn1cc(C)c(C(=O)O)c1CC(=O)NCCN1CCCc2ccccc21
RP-LC retention time: 711 s

SMILES: O=c1ccc(-c2ccccc2)nn1Cc1nc(-c2cccc(Br)c2)no1
RP-LC retention time: 1090 s

SMILES: CC1CCCCN1CCCNC(=O)CN1C(=O)c2ccccc2Sc2ncccc21 (configuration not stated)
RP-LC retention time: 661 s

SMILES: CCCCN(CCCC)C(=O)C1CCCN1S(=O)(=O)c1cccc2nsnc12 (configuration not stated)
RP-LC retention time: 1080 s

SMILES: Fc1cccc(-c2nc3ncccn3c2NC2CCCCC2)c1
RP-LC retention time: 834 s

SMILES: CCc1noc([C@@H]2CC(F)(F)CN2C(=O)c2cnc[nH]2)n1
RP-LC retention time: 604 s

SMILES: Fc1ccc2[nH]c(CN3CCN(c4ccccn4)CC3)cc2c1
RP-LC retention time: 649 s

SMILES: CN1CCCc2cc(C(CNC(=O)C(=O)NCCN3CCOCC3)N3CCCCC3)ccc21 (configuration not stated)
RP-LC retention time: 558 s

SMILES: CC(C)n1nccc1-c1nnc(NC(=O)C(C)(C)Oc2ccc(Cl)cc2)o1
RP-LC retention time: 903 s

SMILES: Cc1ccc(CNC(=O)C2CCN(c3cncnc3N3CCOCC3)CC2)o1
RP-LC retention time: 605 s

SMILES: CCc1ccc(-c2noc(Cn3c(=O)n(-c4ccccc4F)c(=O)c4sccc43)n2)cc1
RP-LC retention time: 1100 s

SMILES: Cc1cccc(N2CCN(C(=O)c3[nH]c(C)c(S(=O)(=O)N4CCOCC4)c3C)CC2C)c1 (configuration not stated)
RP-LC retention time: 752 s

SMILES: CC(C)c1cc(C(=O)N2CCCCC2)nc2ccnn12
RP-LC retention time: 767 s

SMILES: CC(C)CCNC(=O)c1c(OCC2CC2)cc(=O)n2c1CCCCC2
RP-LC retention time: 774 s

SMILES: Cc1ccc(C(=O)N2CCCC(c3nnc(-c4ccccc4)o3)C2)s1 (configuration not stated)
RP-LC retention time: 861 s

SMILES: Cc1noc2nc(C)n(CC(=O)NC3CCCc4ccccc43)c(=O)c12 (configuration not stated)
RP-LC retention time: 822 s
